From patent publication US7419984B2, “Pyrimidines and uses thereof” (Cell Therapeutics, Inc., priority 2002, dated 2008) come the findings set out here.

In this experiment the target is T1, human LPAAT-β (Homo sapiens, UniProt O15120).
T1 construct: the full-length human LPAAT-β cDNA was amplified by PCR; poly-histidine tag (N); made in house; host or cells: Sf9 insect cells (baculovirus, pFastBac HTc); the membrane fraction was used as the enzyme
T1 sequence (O15120 24-278): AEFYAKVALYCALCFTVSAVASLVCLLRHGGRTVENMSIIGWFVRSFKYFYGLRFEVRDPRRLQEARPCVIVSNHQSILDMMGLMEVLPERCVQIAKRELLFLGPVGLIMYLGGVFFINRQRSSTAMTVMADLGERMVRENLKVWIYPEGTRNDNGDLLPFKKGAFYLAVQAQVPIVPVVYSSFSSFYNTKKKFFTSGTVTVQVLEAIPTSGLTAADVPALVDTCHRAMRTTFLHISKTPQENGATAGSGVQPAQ
Put plainly: LPAAT-β cell-free assay. The class given is biochemical. As to conditions: Sf9 cell membrane overexpressing recombinant LPAAT-β. In outline: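 Membranes from Sf9 cells expressing His/myc-tagged full-length human LPAAT-β were used in HEPES-saline pH 7.5 with 1 mg/ml BSA. Compound was added from a 200 μM DMSO stock, and reaction with 18:1-CoA and sn-1-18:1 lysoPA (1 mM stocks) ran 25 min at RT. Released CoA was detected with DTNB at 405 nm; a radiometric variant used 200 μM [14C]18:1-CoA and 200 μM lysoPA.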

One may read the IC50 as the point on the concentration scale where inhibition reaches its midpoint.

As to `CNC(=O)c1cc(Nc2cc(-c3cc(Cl)ccc3C)nc(N)n2)ccc1Br` [Example 77, 5-[2-Amino-6-(5-chloro-2-methyl-phenyl)-pyrimidin4-ylamino]-2-bromo-N-methyl-benzamide], the IC50 is 370 nM.

In the case of `C=CCOc1ccc(Cl)cc1-c1cc(Nc2ccc(Cl)cc2)nc(N)n1` [Example 174, 6-(2-Allyloxy-5-chloro-phenyl)-N*4*-(4-chloro-phenyl)-pyrimidine-2,4-diamine], the half-inhibitory concentration (IC50) worked out at 9 nM.

For the compound `CCOc1ccc(Cl)cc1-c1cc(Nc2ccc(-c3cnco3)cc2)nc(N)n1` [Example 66, 6-(5-Chloro-2-ethoxy-phenyl)-N*4*-(4-oxazol-5-yl-phenyl)-pyrimidine-2,4-diamine], the IC50 worked out at 450 nM.

`Cc1ccc(Br)cc1-c1cc(Nc2ccc(C#N)cc2)nc(N)n1` [Example 86, 4-[2-Amino-6-(5-bromo-2-methyl-phenyl)-pyrimidin-4-ylamino]-benzonitrile]: the 50% inhibitory concentration (IC50) is 40 nM.

For the compound `Nc1nc(Nc2ccc(Cl)cc2)cc(-c2cc(Br)ccc2Cl)n1` [Example 187, 6-(5-Bromo-2-chloro-phenyl)-N*4*-(4-chloro-phenyl)-pyrimidine-2,4-diamine], the IC50 was 22 nM.

On to `CCOC(=O)c1cccc(Nc2cc(-c3cc(Br)ccc3OC)nc(N)n2)c1` [Example 171, 3-[2-Amino-6-(5-bromo-2-methoxy-phenyl)-pyrimidin4-ylamino]-benzoic acid ethyl ester], for which the IC50 amounted to 260 nM.

On to `CC(=NO)c1ccc(Nc2cc(-c3cc(Cl)ccc3C)nc(N)n2)cc1` [Example 104, 1-{4-[2-Amino-6-(5-chloro-2-methyl-phenyl)-pyrimidin-4-ylamino]-phenyl}-ethanone-oxime], for which the IC50 was 160 nM.

`CSc1cccc(Nc2cc(-c3cc(Cl)ccc3C)nc(N)n2)c1` [Example 111, 6-(5-Chloro-2-methyl-phenyl)-N*4*-(3-methylsulfanyl-phenyl)-pyrimidine-2,4-diamine]: the IC50 came out at 280 nM.

As for `CCOc1ccc(Br)cc1-c1cc(Nc2ccc(CCO)cc2)nc(N)n1` [Example 70, 2-{4-[2-Amino-6-(5-bromo-2-ethoxy-phenyl)-pyrimidin-4-ylamino]-phenyl}-ethanol], the half-maximal inhibitory concentration (IC50) stood at 29 nM.

In the case of `COc1ccc(Cl)cc1-c1cc(N)nc(Nc2ccc3cn[nH]c3c2)n1` [Example 35, 6-(5-Chloro-2-methoxyphenyl)-N*2*-(1H-indazol-6yl)-pyrimidine-2,4-diamine], the concentration for half-maximal inhibition (IC50) came out at 800 nM.

As to `CCOc1ccc(Cl)cc1-c1cc(Nc2ccc(OC)cc2)nc(N)n1` [Example 58, 6-(5-Chloro-2-ethoxy-phenyl)-N*4*-(4-methoxy-phenyl)-pyrimidine-2,4-diamine], the IC50 is 200 nM.

As for `Cc1ccc(Cl)cc1-c1cc(Nc2ccc(F)cc2)nc(N)n1` [Example 97, 6-(5-Chloro-2-methyl-phenyl)-N*4*-(4-fluoro-phenyl)-pyrimidine-2,4-diamine], the half-inhibitory concentration (IC50) was found to be 73 nM.

`COc1ccccc1COc1ccc(Br)cc1-c1cc(Nc2ccc(C)cc2)nc(N)n1` [Example 188, 6-[5-Bromo-2-(2-methoxy-benzyloxy)-phenyl]-N*4*-p-tolyl-pyrimidine-2,4-diamine]: the half-maximal inhibitory concentration (IC50) was 21 nM.

In the case of `CCOc1ccc(Br)cc1-c1cc(Nc2ccc(C(=O)C(F)(F)F)cc2)nc(N)n1` [Example 131, 1-{4-[2-Amino-6-(5-bromo-2-ethoxy-phenyl)-pyrimidin-4-ylamino]-phenyl}-2,2,2-trifluoro-ethanone], the IC50 was 12 nM.

Take `COc1ccc(Cl)cc1-c1cc(Nc2ccc(Br)cc2)nc(N)n1` [Example 5, N*4*-(4-Bromo-phenyl)-6-(5-chloro-2-methoxy-phenyl)-pyrimidine-2,4-diamine]: the IC50 is 29 nM.

For `Cc1ccc(F)cc1-c1cc(Nc2ccc(C(F)(F)F)cc2)nc(N)n1` [Example 76, 6-(5-Fluoro-2-methyl-phenyl)-N*4*-(4-trifluoromethyl-phenyl)-pyrimidine-2,4-diamine], the half-maximal inhibitory concentration (IC50) came out at 710 nM.
